The numbers were not newly measured in patent US20090197815A1, “COMBINATION OF SOMATOSTATIN-ANALOGS WITH DOPAMINE- OR GROWTH HORMONE RECEPTOR ANTAGONIST” (priority 2006, published 2009), which cites them from elsewhere.

Where two headings read alike, the source gives them in different places.

Data set [1] concerns patients with acromegaly. The following applies: daily subcutaneous monotherapy.
Data set [2] relates to acromegalic patients.
Data set [3] relates to acromegalic patients. The following applies: cabergoline 1-3.5 mg/week added to depot SSA at maximum registered dose, 19 patients.
The test system of data set [4] is patients with acromegaly.

Take pegvisomant: in the data set with patients with acromegaly [1], the “change of GH concentrations during therapy” value is “increased by nearly twofold”, the “normalization of circulating IGF-I levels” value was 80 to 90 % of patients and the tolerability result is “good tolerability”. In the data set on acromegalic patients [2] (after 18 weeks, at least 50 mg pegvisomant per week, with monthly 30 mg Sandostatin LAR or 120 mg lanreotide Autogel), the IGF-I concentration normal is listed as 81 % of patients. Also, the IGF-I concentration normal in the data set with acromegalic patients [2] (at week 42, weekly pegvisomant with monthly 30 mg Sandostatin LAR or 120 mg lanreotide Autogel) was 95 % of patients. Besides, in the data set on acromegalic patients [2] (combined with monthly long-acting SSA, range 40-80 mg), the “median weekly dose needed to return IGF-I concentration to normal” value is on record as 60 mg. In addition, in the data set on acromegalic patients [2] (from week 12, independent from pegvisomant dose, 10 patients, combined with long-acting SSA), the “patients with mild non-progressive increases in liver transaminases” value is given as 38%.
Turning to `C=CCN1C[C@H](C(=O)N(CCCN(C)C)C(=O)NCC)C[C@@H]2c3cccc4[nH]cc(c34)C[C@H]21` [cabergoline], in the data set with acromegalic patients [3], the “normalization of IGF1” value is on record as 42 % patients; the “normalized both biochemical markers (GH<2.5 μg/L and IGF1 for age)” value is recorded as 16 % of patients; the “reduction of GH<2.5 μg/L” value is listed as 21 % of patients.
Take `C[C@@H](O)[C@@H]1NC(=O)[C@H](CCCCN)NC(=O)[C@@H](Cc2c[nH]c3ccccc23)NC(=O)[C@H](Cc2ccccc2)NC(=O)[C@@H](NC(=O)[C@H](N)Cc2ccccc2)CSSC[C@@H](C(=O)N[C@H](CO)[C@@H](C)O)NC1=O` [Sandostatin®, octreotide acetate]: in the data set on patients with acromegaly [4], the “normalization of IGF-I” value is “approximately 60 % of cases”, the “patients with GH levels decreasing to <2.0 μg/L” value is recorded as 40 % of patients and the “patients with GH levels decreasing to <5.0 μg/L” value is listed as 65 % of patients.
